In PubChem BioAssay (NCI):
Several values for one entry are separate records, joined by “and”; a condition that tells them apart may be missing. Identical values can stand only once.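 Growth conditions: 96-well plates. Treatment: test compound, 48 hours, 5 concentrations. Analysis: linear interpolation between bracketing concentrations; unreached endpoints set to highest concentration. GI50 = concentration required for 50% inhibition of growth. TGI: concentration producing complete growth inhibition.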

What was measured:
Assay in all cases: NCI-60 cell line screen, 48 h
UACC-257 melanoma = tested on: UACC-257 melanoma
RXF 393 renal = tested on: RXF 393 renal
NCI/ADR-RES ovarian = tested on: NCI/ADR-RES ovarian
CAKI-1 renal = tested on: CAKI-1 renal
HT29 colon = tested on: HT29 colon
OVCAR-3 ovarian = tested on: OVCAR-3 ovarian
SR leukemia = tested on: SR leukemia
HCC-2998 colon = tested on: HCC-2998 colon
KM12 colon = tested on: KM12 colon
HOP-62 NSCLC = tested on: HOP-62 NSCLC

Structure (SMILES)	GI50 (UACC-257 melanoma)	TGI (UACC-257 melanoma)	GI50 (RXF 393 renal)	TGI (RXF 393 renal)	GI50 (NCI/ADR-RES ovarian)	TGI (NCI/ADR-RES ovarian)	GI50 (CAKI-1 renal)	TGI (CAKI-1 renal)	GI50 (HT29 colon)	TGI (HT29 colon)	GI50 (OVCAR-3 ovarian)	TGI (OVCAR-3 ovarian)	GI50 (SR leukemia)	TGI (SR leukemia)	GI50 (HCC-2998 colon)	TGI (HCC-2998 colon)	GI50 (KM12 colon)	TGI (KM12 colon)	GI50 (HOP-62 NSCLC)	TGI (HOP-62 NSCLC)
Nc1nc(N)c2c(n1)NC(c1ccccc1)C1CCc3ccccc3C1=N2 (centres undefined)	3.72 µM	15 µM	4.89 µM	19 µM	3.13 µM	13.6 µM	3.97 µM	18.3 µM	3.66 µM	14.4 µM	3.48 µM	15.4 µM	4.52 µM	> 100 µM	3.82 µM	15.6 µM	4.07 µM	14.9 µM	7.87 µM	21.3 µM
COC(=O)/C=C1/SC(N2N=C(c3cccs3)CC2c2ccc(F)cc2)=NC1=O (centres undefined)	2.39 µM	6.83 µM	1.73 µM	3.26 µM	2.84 µM	8.61 µM	2.82 µM	10.2 µM	2.28 µM	4.54 µM	2.19 µM	5.27 µM	2.23 µM	11.8 µM	1.97 µM	3.52 µM	1.92 µM	3.78 µM	1.87 µM	4.29 µM
CCOC(=O)c1oc2ccc([N+](=O)[O-])c3c2c1CCC3		> 100 µM		59.6 µM		> 100 µM		> 77.5 µM		> 100 µM		> 100 µM		> 100 µM		> 100 µM		> 100 µM		58.9 µM
C[n+]1c(-c2ccc(/C=N/NC(=O)c3ccc(C(=O)N/N=C/c4ccc(-c5cn6ccccc6[n+]5C)cc4)cc3)cc2)cn2ccccc21	182 µM	97.5 µM and 322 µM	174 µM	> 87.2 µM and 312 µM	553 µM	> 1000 µM	> 1000 µM	> 1000 µM	137 µM	266 µM	> 1000 µM	> 1000 µM		218 µM	577 µM	> 1000 µM	> 1000 µM	> 1000 µM	277 µM	425 µM
CN1CCN(Cc2ccc(NC(=O)c3cncc(C#Cc4cncc5nccnc45)c3)cc2C(F)(F)F)CC1	1.48 µM	6.27 µM	2.21 µM	7.47 µM	6.68 µM	25.1 µM	2.18 µM	9.09 µM	0.914 µM	7.87 µM	4.95 µM	15.1 µM	2.98 µM	28.5 µM	1.73 µM	8.48 µM	0.136 µM	6.88 µM	2.68 µM	9.8 µM
Cc1ccc(C(SCC(N)C(=O)O)(c2ccccc2)c2ccccc2)cc1 (centres undefined)	22.8 µM	> 100 µM	0.103 µM	> 100 µM	1.03 µM	6.03 µM	0.151 µM	> 100 µM	0.365 µM	> 100 µM	0.0391 µM	0.158 µM	0.0724 µM	> 45.8 µM	0.246 µM	15.2 µM	0.0983 µM	5.98 µM	0.18 µM	> 49.7 µM
NC(N)=Nc1nc2ccc([N+](=O)[O-])cc2[nH]1		> 100 µM		> 100 µM		> 100 µM		> 100 µM		> 100 µM		> 100 µM		> 100 µM				> 100 µM		> 100 µM
C/C(=N\NC(=S)N1CC2CCC(CC2)C1)c1cccc(C)n1	0.68 µM	9.8 µM		14.8 µM	< 0.0001 µM			14.2 µM	< 0.0001 µM	11.4 µM	0.00014 µM	9.75 µM	0.21 µM	> 32.9 µM		19.1 µM		14.8 µM	0.397 µM	14.2 µM
CCC(=O)Nc1ccccc1C#C/C=C\C#Cc1ccccc1C(F)(F)F	7.17 µM	> 45.2 µM	2.84 µM	> 12.7 µM	1.48 µM	9.95 µM	1.53 µM	> 30.4 µM	5.94 µM	> 50 µM	2.4 µM	11.2 µM	0.386 µM		4.19 µM	14.9 µM	2.02 µM	> 26.5 µM	2.42 µM	> 50 µM
C=C(CC(=O)O)C(=O)O (tested in a mixture with another compound)	> 50 µg/mL	> 50 µg/mL	10.2 µg/mL	> 50 µg/mL	> 50 µg/mL	> 50 µg/mL	> 50 µg/mL	> 50 µg/mL	> 50 µg/mL	> 50 µg/mL	> 50 µg/mL	> 50 µg/mL	> 50 µg/mL	> 50 µg/mL			> 50 µg/mL	> 50 µg/mL	> 50 µg/mL	> 50 µg/mL
CN1CCN(c2nc(NCCCNc3ccnc4cc(Cl)ccc34)c3ccccc3n2)CC1	2.02 µM	3.83 µM	1.49 µM	3.72 µM	22 µM	59.1 µM			3.33 µM	9.87 µM	6.93 µM	21.6 µM	1.74 µM	6.05 µM	3 µM	12.5 µM	4.02 µM	16.1 µM	2.81 µM	11.6 µM
Cc1[nH]nc2c1N=C(c1ccccc1F)c1cc(C(N)=O)ccc1N2	9.15 µM	> 25 µM	0.975 µM	6.15 µM	> 25 µM	> 25 µM	3.83 µM	> 19.7 µM	4.92 µM	> 25 µM	2.14 µM	> 20.1 µM	0.191 µM	8.2 µM	8.51 µM	> 25 µM	1.32 µM	> 16.3 µM	3.79 µM	24.4 µM
C/C=C/[C@H]1O[C@@H]2C(=C[C@H]1O)C(=O)O[C@H]2C	21.7 µM	43.7 µM	18.9 µM	67.7 µM	26 µM	> 57 µM	5.3 µM	17.1 µM	2.19 µM	27.4 µM	18 µM	39.2 µM	7.29 µM	> 100 µM	27.9 µM	55.9 µM	33.3 µM	> 78 µM	23.4 µM	48.4 µM
C[C@]12CC[C@H]3[C@@H](C[C@@H]4SC(Nc5ccccc5)=N[C@@]45CC(O)CC[C@]35C)[C@@H]1CCC2O (some centres undefined)	2.54 µM	6.68 µM	0.798 µM	2.28 µM	3.39 µM	91.7 µM	2.32 µM	5.68 µM			1.28 µM	2.62 µM	0.241 µM	6.1 µM	1.97 µM	3.56 µM	1.68 µM	3.12 µM	2.47 µM	6.54 µM
Oc1cccc(/C=N/Nc2nnc(N/N=C/c3cccc(O)c3)c3ccccc23)c1		> 100 µM		> 100 µM		60.1 µM		83.3 µM		> 100 µM		35.8 µM		7.06 µM				> 100 µM		33 µM
Cc1ccc(C2=C(c3ccccc3)C(c3ccccc3)Oc3ccc(C)cc32)cc1 (centres undefined)	9.2 µM	23.7 µM	3.37 µM	13.3 µM	2.18 µM	5.35 µM	12.7 µM	31.4 µM			12.4 µM	32.7 µM	16.5 µM	38.4 µM	1.64 µM	3.1 µM	5.5 µM	23.6 µM	3.09 µM	7.71 µM
Cc1ccn2c(CCc3nnc4cc(C)ccn34)nnc2c1		> 100 µM		> 100 µM		> 100 µM		> 100 µM		> 100 µM		> 100 µM		> 100 µM				> 100 µM		> 100 µM
CCCNC(=O)c1ccc(Cl)cc1Cl	> 100 µM	> 100 µM	> 100 µM	> 100 µM	> 100 µM	> 100 µM	> 100 µM	> 100 µM	> 100 µM	> 100 µM	> 100 µM	> 100 µM	> 100 µM	> 100 µM			> 100 µM	> 100 µM	> 100 µM	> 100 µM
c1cncc(C2Nc3cccc4cccc(c34)N2)c1			16.8 µM	33 µM	33.8 µM	> 100 µM	48.7 µM	> 100 µM	31.8 µM	> 100 µM	17.8 µM	37.1 µM	27.5 µM	> 100 µM	> 100 µM	> 100 µM	30.8 µM	97.7 µM	42.5 µM	> 100 µM
Cc1cc(C(=O)O)c(C)n1-c1cccc(C(=O)O)c1	> 100 µM	> 100 µM	> 100 µM	> 100 µM	> 100 µM	> 100 µM			> 100 µM	> 100 µM	> 100 µM	> 100 µM	> 100 µM	> 100 µM	> 100 µM	> 100 µM	> 100 µM	> 100 µM	> 100 µM	> 100 µM
CCOC(=O)c1c(C)nc2c(c1N)CC(=O)N2CCc1ccccc1	4.68 µM	19.4 µM	4.05 µM	15.3 µM	2.05 µM	27.2 µM			0.327 µM	14.5 µM	0.412 µM	13.3 µM	0.444 µM	28.1 µM	3.49 µM	12.8 µM	0.35 µM	15.5 µM	0.472 µM	14.7 µM
